Patent US20240316047A1, “INHIBITORS OF RNA HELICASE DHX9 AND USES THEREOF” (ACCENT THERAPEUTICS, INC., priority 2022, published 2024)

Biological target: Human recombinant DHX9 protein (Homo sapiens (Human), UniProt Q08211)
Assay: DHX9 ATPase assay (ADP-Glo)
Type: biochemical
Conditions: for IC50: read-out: DHX9 Biochemical Inflection Point

Sequence of Human recombinant DHX9 protein (Q08211 whole entry): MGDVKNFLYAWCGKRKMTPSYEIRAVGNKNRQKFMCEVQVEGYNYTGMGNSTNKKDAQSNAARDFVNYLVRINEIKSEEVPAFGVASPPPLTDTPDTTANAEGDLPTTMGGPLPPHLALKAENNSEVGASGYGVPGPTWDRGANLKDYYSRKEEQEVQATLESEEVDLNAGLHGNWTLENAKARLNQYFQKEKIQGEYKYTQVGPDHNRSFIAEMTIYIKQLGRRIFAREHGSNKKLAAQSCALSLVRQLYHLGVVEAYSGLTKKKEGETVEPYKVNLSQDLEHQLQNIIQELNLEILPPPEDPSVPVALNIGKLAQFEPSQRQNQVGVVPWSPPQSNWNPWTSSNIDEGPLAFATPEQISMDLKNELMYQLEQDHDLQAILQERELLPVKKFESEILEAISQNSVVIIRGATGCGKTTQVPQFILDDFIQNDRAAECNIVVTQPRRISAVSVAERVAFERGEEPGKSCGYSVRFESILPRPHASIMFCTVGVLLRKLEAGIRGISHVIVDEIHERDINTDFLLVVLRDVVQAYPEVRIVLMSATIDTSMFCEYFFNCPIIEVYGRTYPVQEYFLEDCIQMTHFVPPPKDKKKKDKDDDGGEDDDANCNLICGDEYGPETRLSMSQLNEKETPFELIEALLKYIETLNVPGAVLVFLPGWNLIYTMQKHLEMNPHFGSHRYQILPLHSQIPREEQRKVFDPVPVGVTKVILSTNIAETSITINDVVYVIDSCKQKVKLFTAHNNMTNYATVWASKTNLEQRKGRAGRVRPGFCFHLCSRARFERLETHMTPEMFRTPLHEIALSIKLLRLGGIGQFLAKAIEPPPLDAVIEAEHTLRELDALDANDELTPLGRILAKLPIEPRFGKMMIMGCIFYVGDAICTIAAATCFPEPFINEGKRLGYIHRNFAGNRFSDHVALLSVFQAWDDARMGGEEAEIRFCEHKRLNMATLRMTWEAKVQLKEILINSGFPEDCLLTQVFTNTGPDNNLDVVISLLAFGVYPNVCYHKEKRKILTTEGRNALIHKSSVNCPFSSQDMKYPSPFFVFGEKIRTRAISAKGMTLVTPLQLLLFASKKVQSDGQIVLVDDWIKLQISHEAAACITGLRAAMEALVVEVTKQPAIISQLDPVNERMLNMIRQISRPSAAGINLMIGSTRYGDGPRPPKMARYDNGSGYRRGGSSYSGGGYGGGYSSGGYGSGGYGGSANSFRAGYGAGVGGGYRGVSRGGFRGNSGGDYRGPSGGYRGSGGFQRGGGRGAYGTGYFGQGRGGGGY

Compound | DHX9 Biochemical Max Inhibition | IC50 [nM]
CC(Oc1cccnc1-n1cc(C(=O)Nc2cc(Cl)cc(NS(C)(=O)=O)c2)cn1)c1ccccc1 (stereo not shown) [Example 62] | 58.4% | 211
CN(c1ncccn1)c1cccnc1-c1csc(C(=O)Nc2cc(Cl)cc(NS(C)(=O)=O)c2)c1 [Example 238] | 72.9% | 22.9
Cc1cc(C(=O)Nc2cc(Cl)cc(NS(C)(=O)=O)c2)cn1-c1ncc(C(F)(F)F)cn1 [Example 426] | 74.7 | 58.5
CS(=O)(=O)Nc1cc(Cl)cc(NC(=O)c2cc(-c3ncccc3OCc3ccccc3)cs2)c1 [Example 29] | 65.2% | 48.2
COc1ccc(-n2cc(C(=O)Nc3cc(Cl)cc(NS(C)(=O)=O)c3)cc2C)nc1 [Example 391] | 78.5 | 8.9
CCS(=O)(=O)Nc1cc(Cl)cc(NC(=O)c2cc(C)n(-c3ncc(F)cc3Cl)c2)c1 [Example 446] | 64.1 | 115
CS(=O)(=O)Nc1cc(Cl)cc(NC(=O)c2cc3cccc(F)c3s2)c1 [Example 297] | 57% | 997
CCS(=O)(=O)Nc1cc(Cl)cc(NC(=O)c2cc(-c3ncc(F)cc3C)c(C)s2)c1 [Example 350] | 67.1% | –
CS(=O)(=O)Nc1cc(Cl)cc(NC(=O)c2cnn(-c3c(F)cccc3OCc3cnco3)c2)c1 [Example 721] | 68.1 | 231
CS(=O)(=O)Nc1cc(Cl)cc(NC(=O)c2cnn(-c3ncccc3OCc3cncc(F)c3)c2)c1 [Example 186] | 87.9% | 3.9
Cc1cccnc1-c1csc(C(=O)Nc2cc(Br)cc(NS(C)(=N)=O)c2)c1 (stereo not shown) [Example 122] | 67.7% | 28.8
CS(=O)(=O)Nc1cc(Cl)cc(NC(=O)c2cc(-c3ccc(F)cn3)n(CC(F)F)c2)c1 [Example 286] | 72.9% | 240
CC(=O)N1CCN(c2ccc(-n3cc(C(=O)Nc4cc(Br)cc(NS(C)(=O)=O)c4)cn3)nc2)CC1 [Example 86, 1-(5-(4-acetylpiperazin-1-yl)pyridin-2-yl)-N-(3-bromo-5-(methylsulfonamido)phenyl)-1H-pyrazole-4-carboxamide] | 51.5% | 18.4
CN1CC2(CC(n3cc(C(=O)Nc4cc(Cl)cc(NS(C)(=O)=O)c4)cn3)C2)C1 [Example 311] | 77.7% | 38.5
CC(C)Oc1cnc(-c2csc(C(=O)Nc3cc(Cl)cc(NS(C)(=O)=O)c3)c2)nc1 [Example 457] | 58.7 | 20.2
CCS(=O)(=O)Nc1cc(Cl)cc(NC(=O)c2cc(-c3ncccc3C)cs2)c1 [Example 224] | 67.3% | 6.4
CCS(=O)(=O)Nc1cc(Cl)cc(NC(=O)c2cc(-c3ncc(F)cc3OCc3nccs3)c(C)s2)c1 [Example 622] | 62.9 | 23
CC(C)(C)Oc1cnc(-c2cc(C(=O)Nc3cc(Cl)cc(NS(C)(=O)=O)c3)sc2CO)nc1 [Example 686] | 66.6 | 18.2
Cc1cccnc1-c1csc(C(=O)Nc2cc(F)cc(NS(C)(=O)=O)c2)c1 [Example 334] | 81.5% | 10.9
CS(=O)(=O)Nc1cc(Cl)cc(NC(=O)c2cc3cnccn3c2)c1 [Example 330] | 61.9% | 88
Cc1sc(C(=O)Nc2cc(Cl)cc(NS(C)(=O)=O)c2)cc1-c1ncccc1OCc1cncc(F)c1 [Example 621] | 74.4 | 6.8
CS(=O)(=O)Nc1cc(Cl)cc(NC(=O)c2cc3ccc(F)cc3s2)c1 [Example 294] | 59% | 1610
CS(=O)(=O)Nc1cc(Cl)cc(NC(=O)c2cc(-c3ccccc3)co2)c1 [Example 7] | 46.4% | 380
CS(=O)(=O)Nc1cc(Cl)cc(NC(=O)c2cc(-c3ncccc3OCc3cnco3)cs2)c1 [Example 215] | 75.4% | 4
Cc1sc(C(=O)Nc2cc(Br)cc(NS(C)(=O)=O)c2)cc1-c1ccccc1O [Example 20] | 62.5% | 57.2
Cn1cc(C(=O)Nc2cc(Cl)cc(NS(C)(=O)=O)c2)cc1-c1ccc(N2CC(F)(F)C2)cn1 [Example 595, N-(3-chloro-5-methanesulfonamidophenyl)-5-[5-(3,3-difluoroazetidin-1-yl)pyridin-2-yl]-1-methyl-1H-pyrrole-3-carboxamide] | 69.35 | 17.5
Cc1ccnc(OCc2cncc(F)c2)c1-c1cc(C(=O)Nc2cc(Cl)cc(NS(C)(=O)=O)c2)cn1C [Example 624] | 97.2 | 8.9

Compound | DHX9 Biochemical Max Inhibition | IC50 [nM]
CS(=O)(=O)Nc1cc(Cl)cc(NC(=O)c2cccc(-c3ccnc(Cl)c3)c2)c1 [Example 102, N-(3-chloro-5-(methylsulfonamido)phenyl)-3-(2-chloropyridin-4-yl)benzamide] | 61.8% | 762
CS(=O)(=O)Nc1cc(Cl)cc(NC(=O)c2cc(-c3ccccc3)cs2)c1 [Example 75] | 55.5% | –
CCS(=O)(=O)Nc1cc(Cl)cc(NC(=O)c2cc(-c3ncc(F)cn3)cs2)c1 [Example 343] | 54.4% | 55.2
Cc1ccc(OCc2cccc(F)c2)c(-n2cc(C(=O)Nc3cc(Cl)cc(NS(C)(=O)=O)c3)cn2)n1 [Example 204] | 68.9% | 9.6
CN(C)C(=O)c1sc(C(=O)Nc2cc(Cl)cc(NS(C)(=O)=O)c2)cc1-c1ncccc1OCc1ccccc1 [Example 213] | 71.6% | 16.4
Cc1cccnc1-n1cc(C(=O)Nc2cc(Cl)cc(NS(C)(=O)=O)c2)cc1C [Example 130] | 70.4% | 39.6
CS(=O)(=O)Nc1cc(Cl)cc(NC(=O)c2cnn(-c3ncc(N4CC5(COC5)C4)cc3O)c2)c1 [Example 691] | 68.5 | 35.9
COC(=O)N1CCN(c2cnc(-c3cc(C(=O)Nc4cc(Cl)cc(NS(C)(=O)=O)c4)sc3C)c(C)c2)CC1 [Example 601] | 72.2 | 21.2
Cc1cccnc1-c1csc(C(=O)Nc2cc(Cl)cc(NS(C)(=O)=O)c2)c1C [Example 684] | 50.6 | 8310
CN1CCN(c2csc(C(=O)Nc3cc(Cl)cc(NS(C)(=O)=O)c3)c2)CC1=O [Example 661] | 78.6 | 3.2
CS(=O)(=O)Nc1cc(Cl)cc(NC(=O)c2cccc(-c3cccc(C#N)c3)c2)c1 [Example 13] | 41.7% | 1150
COc1cc(F)cnc1-n1cc(C(=O)Nc2cc(Cl)cc(NS(C)(=O)=O)c2)cc1C [Example 393] | 77 | 2.3
CS(=O)(=O)Nc1cc(Cl)cc(NC(=O)c2cn(-c3ccccc3)cn2)c1 [Example 1, N-(3-chloro-5-(methylsulfonamido)phenyl)-1-phenyl-1H-imidazole-4-carboxamide] | 48.3% | 320
Cc1cc(C(=O)Nc2cc(Cl)cc(NS(C)(=O)=O)c2)cn1-c1ncc(N2CC(F)(F)C2)cc1OC1CCC1 [Example 673] | 70.2 | 104
CS(=O)(=O)Nc1cc(Cl)cc(NC(=O)c2cc(-c3ncccc3COc3cc(F)cc(F)c3)cs2)c1 [Example 228] | 67.2% | 65.5
CS(=O)(=O)Nc1cc(Cl)cc(NC(=O)c2cnn(-c3ccc(N4CCn5ccnc5C4)cn3)c2)c1 [Example 192] | 72.6% | 16.5
CS(=O)(=O)Nc1cc(Br)cc(NC(=O)c2cnn(-c3cccc(C#N)c3)c2)c1 [Example 52] | 37.9% | 198
CCS(=O)(=O)Nc1cc(F)cc(NC(=O)c2cc(Br)cs2)c1 [Example 72] | 67.2% | 378
CS(=O)(=O)Nc1cc(Br)cc(NC(=O)c2cc(-c3ccccn3)n(CC#N)c2)c1 [Example 95, N-(3-bromo-5-methanesulfonamidophenyl)-1-(cyanomethyl)-5-(pyridin-2-yl)-1H-pyrrole-3-carboxamide] | 59.2% | 20.5
CS(=O)(=O)Nc1cc(Br)cc(NC(=O)c2cnn(-c3ccccc3C(O)C(F)(F)F)c2)c1 (stereo not shown) [Example 103, N-(3-bromo-5-(methylsulfonamido)phenyl)-1-(2-(2,2,2-trifluoro-1-hydroxyethyl)phenyl)-1H-pyrazole-4-carboxamide] | 49.5% | 452
CC(C)n1cc(C(=O)Nc2cc(Cl)cc(NS(C)(=O)=O)c2)cc1-c1ncc(F)cn1 [Example 667] | 67.1 | 145
Cn1cc(C(=O)Nc2cc(Cl)cc(NS(C)(=O)=O)c2)cc1-c1ncc(OC2CN(CC(F)F)C2)cc1F [Example 614] | 70.4 | 14.6
CS(=O)(=O)Nc1cc(Cl)cc(NC(=O)c2cnn(-c3ncccc3OCc3cccc(Cl)c3)c2)c1 [Example 70] | 78.9% | 8.5
Cc1sc(C(=O)Nc2cc(Cl)cc(NS(C)(=O)=O)c2)cc1-c1ncc(N2CCC(F)(F)C2)cc1F [Example 484] | 66.5 | 33.5
Cc1cc(C(=O)Nc2cc(Cl)cc(NS(C)(=O)=O)c2)cn1-c1ccc(OC2COC2)cn1 [Example 668] | 82.3 | 7.3
CS(=O)(=O)Nc1cc(Cl)cc(NC(=O)c2cnn(-c3ncccc3OCc3ccccc3)c2)c1 [Example 68] | 68.7% | 23.8
Cn1cc(C(=O)Nc2cc(Cl)cc(NS(C)(=O)=O)c2)cc1-c1ncc(F)cc1OCc1cnco1 [Example 268] | 73.1% | 9.4
